Data set [1] deals with FRDA lymphocytes. Description: Suppression of lipid peroxidation (C11-BODIPY581/591, FACS) in FRDA lymphocytes treated with diethyl maleate. In kind it is cell-based. The conditions noted are these: Lymphocyte, DEM, read-out: Scavenging activity (%), suppression of lipid peroxidation. From the text:
Several methods for assaying lipid peroxidation in vitro have been developed (Kuypers et al. (1987) Biochim Biophys Acta. 25, 266-274; Pap et al. (1999) FEBS Lett. 453, 278-282; Drummen et al. (2002) Free RadicBiol Med. 33, 473-490). Almost all of these methods are based on inhibition of free radical-induced oxidation reactions. A widely used fluorescence assay for lipid peroxidation uses lipid soluble cis-parinaric acid as a probe. cis-parinaric acid loses its fluorescence (λexc/em: 320/432 nm) upon interaction with peroxyl radicals and retains its fluorescence in the presence of radical quenchers. cis-parinaric acid is, however, air sensitive, photolabile and absorbs light in the UV region of the spectrum (at ˜320 nm). […] In practical terms, the results obtained using cis-parinaric as a probe for lipid peroxidation are confounded due to the overlapping of the compounds emission spectra with the cis-parinaric emission spectrum. C11-BODIPY^581/591 Oxidation to Measure Lipid Peroxidation To overcome the problem of spectral overlap using cis-parinaric acid, a fluorescence assay for lipid peroxidation using a lipophilic probe belonging to the BODIPY class of fluorescent dyes was used C11-BODIPY^581/591 (4,4-difluoro-5(4-phenyl-1,3-butadienyl)-4-bora-3a, 4a-diaza-s-indacene-3-propionic acid) fluorescent shifts from red to green upon oxidation. C11-BODIPY^581/591 (Molecular Probes, Eugene, Oreg., USA) stock solution concentrations were determined by measuring the absorption of C11-BODIPY^581/591 at 582 nm using a molar extinction coefficient of 140,000 mol^−1 cm^−1 (R. P. Haugland, (1999) Handbook of Fluorescent Probes and Research Chemicals, Molecular Probes, Inc., Eugene, Oreg.). The lipid peroxidation inducer 2,2′-Azobis (2-amidino-propane dihydrochloride) (AAPH) and the antioxidant compound α-tocopherol (α-TOH) were obtained from Sigma (St. Louis, Mo., USA). Phospholipid bilayers were prepared from 1-stearoyl-2-oleoyl-phosphatidylcholine (SOPC) and 1,2-dilinoleoyl-phosphatidylcholine (DLPC) and were purchased from Avanti® polar lipids, Inc., (Alabaster, Ala., USA). Preparation of Liposomes Phosphotidylcholine (PC) liposomes were prepared as described before (Guey-Shuang et al. (1982) Lipids. 17, 403-413). Briefly, DLPC (25 mg) were dissolved in chloroform and the solvent was removed by nitrogen evaporation (˜2 hours) to give a thin film of PC in a round bottom flask. The lipid film was hydrated with 50 mL of 10 mM Tris-HCl (pH 7.4), 100 mM KCl, shaken and sonicated for 15 seconds. The liposomes obtained were filtered several times through […] membrane filter. Measurement of C11-BODIPY^581/591 Oxidation C11-BODIPY^581/591 was incorporated into liposomes and oxidized by peroxyl radicals derived from the decomposition of AAPH in the presence and absence of compounds. Liposomes (1 mg/mL), suspended in 10 mM Tris-HCl (pH 7.4), 100 mM KCl, were transferred to a quartz 1 mL cuvette and placed in a Varian Cary Eclipse fluorometer (Varian, Cary, N.C.) equipped with a thermostatted cuvette holder at 40° C. Liposomes were pre-incubated for 10 min with 200 nM C11-BODIPY^581/591 to allow their incorporation into the lipid phase of the liposomes. After the addition of AAPH (10 mM) the decay of the red fluorescence was followed at λ exc=570 nm, λ em=600 nm. Relative fluorescence units were normalized to 100% intensity. Results obtained were verified by repeating experiments N=3 independent experiments. Measurement of C11-BODIPY^581/591 Oxidation in Cell Culture A quantitative FACS analysis of lipid peroxidation of FRDA lymphocytes, which had been treated with diethyl maleate following incubation in the presence and absence of the test compounds, was measured as described (Khdour et al. (2011) Pharmaceut. Res. 28, 2896-2909). Briefly, FRDA lymphocytes (5×10^5 cell/mL) were treated with the test compounds at final concentrations of 5 and 10 μM and incubated at 37° C. for 16 h in a humidified atmosphere containing 5% CO2 in air. […]

Data set [2] relates to Friedreich's ataxia lymphoblast cell line GM15850. The experiment in a line: Cytoprotection (trypan blue exclusion assay) of DEM-treated FRDA lymphocytes. Conditions: for viability at 5 µM / viability at 0.1 µM / viability at 0.5 µM / viability at 2.5 µM: Homo sapiens, GM15850, DEM alone 18 ± 10% viability, read-out: Cytoprotection (cell viability, % of untreated control). In kind it is cell-based. As to the method: Cell viability was determined by trypan blue exclusion assay in Friedreich's ataxia lymphoblast cell line GM15850 (Coriell Institute, New Jersey). This technique was used to assess the cytoprotective effects of the tested compounds in cultured cells treated with DEM to induce cell death by GSH depletion. The viability of DEM-treated FRDA cells was determined by their ability to exclude the dye trypan blue. Viable cells exclude trypan blue, whereas non-viable cells take up the dye and stain blue. Briefly, FRDA lymphocytes were grown in RPMI 1640 medium (Gibco) supplemented with 15% fetal calf serum, 2 mM glutamine (HyClone) and 1% penicillin-streptomycin mix (Cellgro). Cells were seeded at a density of 5×10^5 cells/mL and treated with different concentrations of the indicated compounds. Cells were incubated at 37° C. in a humidified atmosphere of 5% CO2 in air for 17 h. After pre-incubation, the cells were treated with 5 mM DEM. Cell viability was determined by staining cells with 0.4% trypan blue using a hemacytometer. At least 500 cells were counted in each experimental group. At the time of assay, <20% of DEM treated cells were viable (trypan blue negative), whereas in non DEM-treated control, >90% cells were viable. Cell viability was expressed as the percentage of control. Data are expressed as means±S.E.M. (n=3).
Cell viability was determined by trypan blue exclusion assay in Friedreich's ataxia lymphoblast cell line GM15850 (Coriell Institute). This technique was used to assess the cytoprotective effects of the compounds in cultured cells treated with diethyl maleate (DEM) to induce cell death by glutathione (GSH) depletion. The viability of DEM-treated FRDA cells was determined by their ability to exclude the dye trypan blue. Viable cells exclude trypan blue, whereas non-viable cells take up the dye and stain blue. […] Benzoquinone analogue 9 afforded greater cyoprotection to FRDA lymphocytes at 5 μM concentration than did the tert-butyl ester 6 (74 vs 50%).

For data set [3], the target named is bovine heart mitochondrial complex I (Bos taurus, UniProt P03887+P17694+P42026). The experiment in a line: Complex I (NADH-Q1 oxidoreductase) inhibition in submitochondrial particles. In kind it is biochemical.
Data set [4] has as its system NADH oxidase (complexes I, III and IV). The experiment in a line: NADH oxidase activity (complexes I, III and IV) in submitochondrial particles. In kind it is biochemical, bovine.
Setting [5] is: submitochondrial particles, 30° C.; read-out: Complex I inhibition IC50.
[6] abbreviates: submitochondrial particles, 30° C.; read-out: Complex I inhibition Imax.

Data on 10 compounds can be found in US9957214B2, “Multifunctional radical quenchers” (ARIZONA BOARD OF REGENTS ON BEHALF OF ARIZONA STATE …, priority 2012, dated 2018).

Read-outs that look alike come from different tables or passages of the source.

Chain of bovine heart mitochondrial complex I (P25708 21-464): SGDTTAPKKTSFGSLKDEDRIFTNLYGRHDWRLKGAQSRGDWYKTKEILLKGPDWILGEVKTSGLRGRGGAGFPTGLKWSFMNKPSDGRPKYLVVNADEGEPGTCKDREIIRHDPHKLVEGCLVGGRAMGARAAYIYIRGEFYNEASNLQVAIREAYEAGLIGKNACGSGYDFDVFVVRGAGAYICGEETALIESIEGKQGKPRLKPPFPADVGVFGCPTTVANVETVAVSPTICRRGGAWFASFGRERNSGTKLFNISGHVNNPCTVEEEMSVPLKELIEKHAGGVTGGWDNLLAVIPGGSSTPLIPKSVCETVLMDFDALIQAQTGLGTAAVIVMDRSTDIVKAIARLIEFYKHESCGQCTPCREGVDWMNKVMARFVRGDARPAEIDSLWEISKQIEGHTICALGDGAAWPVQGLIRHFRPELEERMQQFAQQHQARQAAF
Chain of bovine heart mitochondrial complex I (P42026 38-216): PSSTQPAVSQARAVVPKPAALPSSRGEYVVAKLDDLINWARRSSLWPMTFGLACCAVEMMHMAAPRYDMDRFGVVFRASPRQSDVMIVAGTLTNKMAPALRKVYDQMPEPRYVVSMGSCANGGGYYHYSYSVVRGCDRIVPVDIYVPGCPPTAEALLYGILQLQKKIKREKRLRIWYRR
Chain of bovine heart mitochondrial complex I (P17694 34-463): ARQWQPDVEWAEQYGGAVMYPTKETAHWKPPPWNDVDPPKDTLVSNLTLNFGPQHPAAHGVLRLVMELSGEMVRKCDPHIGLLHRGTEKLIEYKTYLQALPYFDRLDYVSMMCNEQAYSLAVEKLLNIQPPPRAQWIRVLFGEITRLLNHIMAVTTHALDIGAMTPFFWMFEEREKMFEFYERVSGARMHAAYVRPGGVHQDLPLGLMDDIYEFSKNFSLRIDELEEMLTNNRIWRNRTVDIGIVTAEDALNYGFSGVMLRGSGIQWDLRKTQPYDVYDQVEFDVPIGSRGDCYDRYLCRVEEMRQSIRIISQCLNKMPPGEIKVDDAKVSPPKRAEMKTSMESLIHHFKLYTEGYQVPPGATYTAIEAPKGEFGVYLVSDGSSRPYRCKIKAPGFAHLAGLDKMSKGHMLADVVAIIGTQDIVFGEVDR
Chain of bovine heart mitochondrial complex I (P15690 24-727, further chain): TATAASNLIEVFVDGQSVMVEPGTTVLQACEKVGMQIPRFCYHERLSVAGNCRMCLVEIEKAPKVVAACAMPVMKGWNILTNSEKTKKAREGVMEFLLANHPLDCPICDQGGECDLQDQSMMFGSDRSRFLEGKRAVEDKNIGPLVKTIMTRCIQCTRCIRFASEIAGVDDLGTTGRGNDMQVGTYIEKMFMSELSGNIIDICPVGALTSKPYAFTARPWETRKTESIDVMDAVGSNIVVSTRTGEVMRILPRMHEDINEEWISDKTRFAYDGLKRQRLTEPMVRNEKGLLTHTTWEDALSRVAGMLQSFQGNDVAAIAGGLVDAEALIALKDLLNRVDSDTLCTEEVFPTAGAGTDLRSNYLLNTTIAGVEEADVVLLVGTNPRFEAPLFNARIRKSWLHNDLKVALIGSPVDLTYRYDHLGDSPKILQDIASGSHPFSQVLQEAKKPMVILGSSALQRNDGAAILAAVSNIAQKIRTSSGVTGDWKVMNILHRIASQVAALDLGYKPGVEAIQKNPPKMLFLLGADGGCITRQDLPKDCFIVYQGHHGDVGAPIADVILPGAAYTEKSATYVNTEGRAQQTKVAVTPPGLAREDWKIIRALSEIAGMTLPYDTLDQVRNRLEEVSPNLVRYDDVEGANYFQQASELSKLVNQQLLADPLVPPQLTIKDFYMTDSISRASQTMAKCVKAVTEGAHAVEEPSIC
Chain of bovine heart mitochondrial complex I (P03887 whole entry): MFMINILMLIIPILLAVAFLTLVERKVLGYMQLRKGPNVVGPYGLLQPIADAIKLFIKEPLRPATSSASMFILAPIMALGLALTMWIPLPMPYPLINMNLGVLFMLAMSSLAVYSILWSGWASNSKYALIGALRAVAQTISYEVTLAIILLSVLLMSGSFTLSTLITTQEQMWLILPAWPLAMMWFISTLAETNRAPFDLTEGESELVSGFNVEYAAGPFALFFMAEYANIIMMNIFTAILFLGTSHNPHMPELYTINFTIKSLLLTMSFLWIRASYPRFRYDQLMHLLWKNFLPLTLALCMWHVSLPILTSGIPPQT
Chain of bovine heart mitochondrial complex I (P42028 37-212, further chain): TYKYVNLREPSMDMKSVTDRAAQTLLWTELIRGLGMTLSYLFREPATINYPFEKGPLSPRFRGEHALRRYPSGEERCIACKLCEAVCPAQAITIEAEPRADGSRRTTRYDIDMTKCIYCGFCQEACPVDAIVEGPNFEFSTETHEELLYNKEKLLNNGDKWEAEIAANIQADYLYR

Usually melting point stands for the temperature of the solid-liquid transition. `C=CCCCCCCCCCC1=C(OC)C(=O)C=C(NCCCCC=C)C1=O` [Compound 38, 5-(hex-5-enylamino)-2-methoxy-3-(undec-10-enyl)cyclohexa-2,5-diene-1,4-dione] gave a melting point of 45 to 46 °C.

Regarding `C=CCCCCCCCCCC1=C(OC)C(=O)C=C(OC)C1=O`, the melting point is 30 to 31 °C.

Usually viability stands for the share of living cells, or the viability signal relative to a control. What is called IC50 is the concentration that inhibits the measured activity by half. In turn, `CCCCCCCCCCCCCC1=C(O)C(=O)C=C(NCCCC(=O)OC(C)(C)C)C1=O` [Compound 6, tert-butyl 4-(4-hydroxy-3,6-dioxo-5-tridecylcyclohexa-1,4-dienylamino)butanoate] registered a melting point of 96 to 97 °C. For the same compound, in data set [1], the inhibition at 5 µM turned out to be 26 ± 6.7% and the inhibition at 10 µM came out at 37 ± 1.4%. In addition, in data set [2] (5 μM), the viability at 5 µM turned out to be 50%. Besides, in data set [3] (setting [5]), the half-maximal inhibitory concentration (IC50) is 10 ± 0.6 µM. For the same compound, the Emax in data set [3] (setting [6]) is 64 ± 13%.

As for `CCCCCCCCCCCCCC1=C(O)C(=O)C=C(NCCCC(=O)O)C1=O` [Compound 8, 4-(4-hydroxy-3,6-dioxo-5-tridecylcyclohexa-1,4-dienylamino)butanoic Acid], in data set [1], the inhibition at 5 µM was determined as 8 ± 6.6% and the inhibition at 10 µM stood at 24%. For the same compound, the “NADH oxidase activity (Complex I, III, IV) %” value in data set [4] (1 μM) is given as 77 ± 4.0%. Besides, in data set [4] (5 μM), the “NADH oxidase activity (Complex I, III, IV) %” value was determined as 62 ± 3.0%. Also, the “Cytoprotection (in words)” value in data set [2] (5 μM, compared with 6 and 9) is listed as “least protection”. The viability at 5 µM in data set [2] (5 μM) stood at 36 ± 7.3%. In addition, in data set [3] (setting [5]), the IC50 is 2 ± 0.1 µM. The Emax in data set [3] (setting [6]) came out at 84 ± 1.3%.

In turn, `C=CCCCCCCCCCc1c(OC)c(OC)cc(OC)c1OC` [Compound 34, 1,2,4,5-tetramethoxy-3-(undec-10-enyl)benzene] registered a melting point of 33 to 34 °C.

As for `C=CCCCCCCCCCC1=C(O)C(=O)C=C(NCCCCC=C)C1=O` [Compound 37, 5-(hex-5-enylamino)-2-hydroxy-3-(undec-10-enyl)cyclohexa-2,5-diene-1,4-dione], the melting point lay within 77 to 78 °C.

For the compound `C=CCCCCCCCCCC1=C(O)C(=O)C=C(OC)C1=O`, the melting point fell in the range of 89 to 90 °C.

On to `CCCCCCCCCCCCCC1=C(O)C(=O)C=C(NCCCCCC)C1=O` [Compound 19, 5-(hexylamino)-2-hydroxy-3-tridecylcyclohexa-2,5-diene-1,4-dione], for which the melting point was 70 °C (dec.). In data set [1], the inhibition at 1 µM is 2 ± 0.3%, the inhibition at 5 µM was 27 ± 4.5% and the inhibition at 10 µM came out at 38%. The “NADH oxidase activity (Complex I, III, IV) %” value in data set [4] (1 μM) was 67 ± 6.0%. Further, the “NADH oxidase activity (Complex I, III, IV) %” value in data set [4] (5 μM) stood at 39 ± 1.0%. In addition, in data set [2], the viability at 0.1 µM was found to be 18 ± 2.1%, the viability at 0.5 µM worked out at 22 ± 2.6% and the viability at 2.5 µM came to 43 ± 4.4%. In addition, the viability at 5 µM in data set [2] (5 μM) is 65 ± 5.2%. In data set [3] (read-out: Complex I inhibition IC50; submitochondrial particles, 30° C.), the IC50 stood at 20 ± 1.7 µM. For the same compound, the Emax in data set [3] (read-out: Complex I inhibition Imax) is 77 ± 6.2%.

For `COC1=C2CCCCCCCCCC=CCCCCNC(=CC1=O)C2=O` [Compound 39], the melting point was 82 to 84 °C.

For `CCCCCCCCCCCCCC1=C(OC)C(=O)C=C(NCCCCCC)C1=O` [Compound 20, 5-(hexylamino)-2-methoxy-3-tridecylcyclohexa-2,5-diene-1,4-dione], the melting point was 110 °C (dec.). Also, in data set [1], the inhibition at 1 µM amounted to 14 ± 1.3%, the inhibition at 5 µM worked out at 61 ± 7.5% and the inhibition at 10 µM was determined as 70%. For the same compound, in data set [4] (1 μM), the “NADH oxidase activity (Complex I, III, IV) %” value was determined as 74 ± 16%. Besides, the “NADH oxidase activity (Complex I, III, IV) %” value in data set [4] (5 μM) stood at 47 ± 3.0%. In data set [2], the viability at 0.1 µM stood at 20 ± 3.2%, the viability at 0.5 µM turned out to be 50 ± 5.2% and the viability at 2.5 µM stood at 66 ± 6.3%. Besides, in data set [2] (5 μM), the viability at 5 µM was 80 ± 4%. Further, the concentration for half-maximal inhibition (IC50) in data set [3] (setting [5]) worked out at 482 ± 24 µM. For the same compound, in data set [3] (setting [6]), the Emax is greater than 85%.
